Data on six molecules can be found in the supplement of paper PMC12076712.

Holding throughout (assay): pIC50, kinobeads binding competition
One test has as its target T1, CASK (UniProt O14936).
T1 sequence (whole entry): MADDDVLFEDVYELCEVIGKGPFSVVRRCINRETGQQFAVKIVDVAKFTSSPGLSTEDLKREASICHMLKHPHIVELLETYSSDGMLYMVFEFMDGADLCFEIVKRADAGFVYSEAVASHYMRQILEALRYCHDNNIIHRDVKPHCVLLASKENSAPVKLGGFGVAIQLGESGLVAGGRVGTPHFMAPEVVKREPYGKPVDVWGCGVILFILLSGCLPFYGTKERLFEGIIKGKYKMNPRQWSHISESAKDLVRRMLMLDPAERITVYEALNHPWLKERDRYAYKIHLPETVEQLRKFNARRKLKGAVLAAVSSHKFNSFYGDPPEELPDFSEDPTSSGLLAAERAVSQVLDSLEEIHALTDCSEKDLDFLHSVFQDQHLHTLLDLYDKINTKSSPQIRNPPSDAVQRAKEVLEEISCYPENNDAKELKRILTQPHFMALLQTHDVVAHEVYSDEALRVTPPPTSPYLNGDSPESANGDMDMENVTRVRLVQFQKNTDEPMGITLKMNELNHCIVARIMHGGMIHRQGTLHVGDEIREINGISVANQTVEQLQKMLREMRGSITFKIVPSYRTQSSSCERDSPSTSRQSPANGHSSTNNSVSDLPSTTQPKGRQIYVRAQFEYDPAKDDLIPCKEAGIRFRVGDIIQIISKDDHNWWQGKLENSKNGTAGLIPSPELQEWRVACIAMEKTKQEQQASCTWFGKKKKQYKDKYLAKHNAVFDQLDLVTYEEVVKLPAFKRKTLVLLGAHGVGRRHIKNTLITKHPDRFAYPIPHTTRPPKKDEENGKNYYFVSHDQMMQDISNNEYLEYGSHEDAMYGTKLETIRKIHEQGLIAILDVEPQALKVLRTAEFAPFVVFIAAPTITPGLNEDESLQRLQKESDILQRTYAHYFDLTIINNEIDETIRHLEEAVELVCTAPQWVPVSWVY
The settings on record: cell material: Lysate mix. In a few lines:
(§1)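 Live Jurkat cells were treated with nine compound concentrations (top 30 μM, 1:4 steps) or DMSO for 60 min at 37 °C before lysis. Alternatively, Jurkat lysate or a 1:1:1:1 HEK293/K-562/HepG2/placenta lysate mix was incubated with nine concentrations (top 30 μM, 1:5 steps) for 60 min at 4 °C. Kinobeads-bound proteins were digested and quantified by TMT10 LC-MS/MS. pIC50 came from logistic dose-response fits (R drc package) of fold changes versus DMSO, in biological duplicates.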

For a further test, the target named is T2, ILK (UniProt Q13418).
T2 sequence (whole entry): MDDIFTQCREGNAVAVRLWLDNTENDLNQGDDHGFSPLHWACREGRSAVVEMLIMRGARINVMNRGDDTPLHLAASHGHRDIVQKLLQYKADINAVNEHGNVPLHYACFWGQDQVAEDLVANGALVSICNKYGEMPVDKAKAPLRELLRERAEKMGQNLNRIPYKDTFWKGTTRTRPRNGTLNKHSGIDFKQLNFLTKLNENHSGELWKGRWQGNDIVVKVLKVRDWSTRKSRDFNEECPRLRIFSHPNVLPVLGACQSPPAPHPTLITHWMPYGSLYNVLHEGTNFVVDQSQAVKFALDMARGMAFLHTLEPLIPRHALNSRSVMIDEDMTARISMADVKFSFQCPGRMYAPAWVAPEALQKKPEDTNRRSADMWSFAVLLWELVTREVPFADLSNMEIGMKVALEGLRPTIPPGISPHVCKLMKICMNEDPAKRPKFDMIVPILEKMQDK
In a few lines:
as §1

The next test addresses KIT (UniProt P10721). The conditions noted are these: cell material: Lysate mix. The procedure, abridged: as §1
Another test addresses T3, TBK1 (UniProt Q9UHD2).
T3 sequence (whole entry): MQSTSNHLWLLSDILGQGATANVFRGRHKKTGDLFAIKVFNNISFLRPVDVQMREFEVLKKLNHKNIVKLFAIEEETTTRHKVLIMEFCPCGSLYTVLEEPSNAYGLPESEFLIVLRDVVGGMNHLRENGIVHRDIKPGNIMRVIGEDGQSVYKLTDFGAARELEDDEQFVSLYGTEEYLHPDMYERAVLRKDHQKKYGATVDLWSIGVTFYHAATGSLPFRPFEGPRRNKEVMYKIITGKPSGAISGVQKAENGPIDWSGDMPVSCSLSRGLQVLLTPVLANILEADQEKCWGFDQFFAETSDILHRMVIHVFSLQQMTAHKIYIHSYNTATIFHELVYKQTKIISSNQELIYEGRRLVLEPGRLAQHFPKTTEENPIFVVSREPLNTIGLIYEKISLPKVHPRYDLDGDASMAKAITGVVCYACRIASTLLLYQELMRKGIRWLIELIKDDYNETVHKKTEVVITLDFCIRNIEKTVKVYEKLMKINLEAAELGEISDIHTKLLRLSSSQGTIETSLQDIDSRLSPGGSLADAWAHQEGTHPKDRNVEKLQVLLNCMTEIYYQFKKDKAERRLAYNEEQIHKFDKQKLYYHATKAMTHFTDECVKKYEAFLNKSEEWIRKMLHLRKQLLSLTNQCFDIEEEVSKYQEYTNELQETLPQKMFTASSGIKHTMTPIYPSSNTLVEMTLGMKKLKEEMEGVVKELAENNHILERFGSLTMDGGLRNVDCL
In a few lines:
as §1

A further test has as its target UniProt Q02779. The settings on record: cell material: Lysate mix. In a few lines:
as §1

For a further test, the target named is UniProt Q9HCP0. In a few lines:
as §1

A further test has as its target PRPF4B (UniProt Q13523). The conditions noted are these: cell material: Lysate mix. The procedure, abridged: as §1
A further test deals with UniProt O95747. In a few lines: as §1
The target in the next test is UniProt Q8NEB9. The procedure, abridged: as §1
Another test deals with T4, UniProt Q9UQB9.
T4 sequence (whole entry): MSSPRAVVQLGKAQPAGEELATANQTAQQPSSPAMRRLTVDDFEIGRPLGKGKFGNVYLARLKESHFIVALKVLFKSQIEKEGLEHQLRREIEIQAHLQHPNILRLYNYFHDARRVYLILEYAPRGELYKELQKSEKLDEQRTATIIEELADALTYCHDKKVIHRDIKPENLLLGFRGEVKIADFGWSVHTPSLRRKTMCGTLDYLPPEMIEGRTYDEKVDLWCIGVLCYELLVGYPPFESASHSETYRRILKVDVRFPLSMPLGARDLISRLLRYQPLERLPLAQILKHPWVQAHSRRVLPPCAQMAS
The procedure, abridged:
as §1

UniProt Q8NEB9, sequence (Q8NEB9 whole entry): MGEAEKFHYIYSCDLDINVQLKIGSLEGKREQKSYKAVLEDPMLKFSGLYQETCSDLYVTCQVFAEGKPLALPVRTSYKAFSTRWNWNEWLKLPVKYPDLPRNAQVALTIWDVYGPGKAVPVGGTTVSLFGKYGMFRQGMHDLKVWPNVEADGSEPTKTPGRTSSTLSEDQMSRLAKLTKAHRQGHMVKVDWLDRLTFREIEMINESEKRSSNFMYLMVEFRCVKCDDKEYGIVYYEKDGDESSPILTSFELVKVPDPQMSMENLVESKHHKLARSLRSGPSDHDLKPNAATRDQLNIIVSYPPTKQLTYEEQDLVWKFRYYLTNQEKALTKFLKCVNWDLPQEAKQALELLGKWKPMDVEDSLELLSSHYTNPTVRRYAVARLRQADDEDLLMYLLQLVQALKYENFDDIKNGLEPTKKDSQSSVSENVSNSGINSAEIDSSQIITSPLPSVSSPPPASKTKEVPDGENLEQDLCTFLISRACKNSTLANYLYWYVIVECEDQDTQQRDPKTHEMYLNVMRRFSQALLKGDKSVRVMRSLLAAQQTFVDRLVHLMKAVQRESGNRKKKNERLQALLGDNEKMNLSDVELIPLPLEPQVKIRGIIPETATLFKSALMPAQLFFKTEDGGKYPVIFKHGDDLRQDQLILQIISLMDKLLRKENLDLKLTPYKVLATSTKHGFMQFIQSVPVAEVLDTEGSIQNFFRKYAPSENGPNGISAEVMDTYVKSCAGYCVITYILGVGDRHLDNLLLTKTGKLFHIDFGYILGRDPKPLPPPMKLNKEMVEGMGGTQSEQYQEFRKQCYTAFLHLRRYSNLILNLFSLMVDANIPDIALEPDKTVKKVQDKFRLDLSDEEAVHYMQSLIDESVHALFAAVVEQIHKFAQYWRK
KIT, sequence (P10721 whole entry): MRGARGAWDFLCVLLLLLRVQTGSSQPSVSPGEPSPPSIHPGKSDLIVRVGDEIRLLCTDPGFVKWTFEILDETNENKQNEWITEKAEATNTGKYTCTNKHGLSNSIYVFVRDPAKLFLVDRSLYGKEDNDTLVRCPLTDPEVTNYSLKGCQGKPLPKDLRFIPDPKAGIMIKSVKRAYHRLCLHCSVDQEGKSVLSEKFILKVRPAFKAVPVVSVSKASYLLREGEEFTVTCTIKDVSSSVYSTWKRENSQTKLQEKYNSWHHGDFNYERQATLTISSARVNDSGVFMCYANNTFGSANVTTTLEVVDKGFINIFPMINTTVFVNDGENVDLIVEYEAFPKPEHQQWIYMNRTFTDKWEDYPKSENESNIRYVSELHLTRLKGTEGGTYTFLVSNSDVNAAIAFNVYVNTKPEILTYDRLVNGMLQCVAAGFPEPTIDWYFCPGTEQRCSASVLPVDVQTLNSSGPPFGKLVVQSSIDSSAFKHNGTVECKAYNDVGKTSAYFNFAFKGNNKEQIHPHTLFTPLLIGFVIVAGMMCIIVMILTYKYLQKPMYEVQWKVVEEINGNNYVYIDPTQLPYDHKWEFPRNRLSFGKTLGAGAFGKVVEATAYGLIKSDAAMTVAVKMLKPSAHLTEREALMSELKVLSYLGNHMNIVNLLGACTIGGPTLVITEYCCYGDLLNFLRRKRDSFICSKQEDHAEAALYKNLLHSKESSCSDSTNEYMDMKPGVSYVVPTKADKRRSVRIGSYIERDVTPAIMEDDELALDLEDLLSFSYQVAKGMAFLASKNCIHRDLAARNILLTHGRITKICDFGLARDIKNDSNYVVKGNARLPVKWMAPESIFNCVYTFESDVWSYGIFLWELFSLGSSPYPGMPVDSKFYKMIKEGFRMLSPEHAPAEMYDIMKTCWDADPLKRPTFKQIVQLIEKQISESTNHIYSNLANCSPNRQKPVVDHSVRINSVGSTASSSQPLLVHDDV
UniProt Q9HCP0, sequence (Q9HCP0 whole entry, looked up): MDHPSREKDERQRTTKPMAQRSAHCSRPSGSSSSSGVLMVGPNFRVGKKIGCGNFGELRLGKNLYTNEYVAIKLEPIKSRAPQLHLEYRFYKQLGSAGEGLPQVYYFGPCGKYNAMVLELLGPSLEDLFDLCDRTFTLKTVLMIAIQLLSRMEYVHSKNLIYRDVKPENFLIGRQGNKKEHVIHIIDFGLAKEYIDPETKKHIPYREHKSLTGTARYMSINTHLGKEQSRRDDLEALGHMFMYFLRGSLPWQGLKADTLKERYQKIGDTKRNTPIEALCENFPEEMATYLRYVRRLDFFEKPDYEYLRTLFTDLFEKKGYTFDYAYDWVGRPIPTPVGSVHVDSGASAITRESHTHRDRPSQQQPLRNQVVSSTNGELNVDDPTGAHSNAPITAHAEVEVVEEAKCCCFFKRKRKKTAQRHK
PRPF4B, sequence (Q13523 whole entry, looked up): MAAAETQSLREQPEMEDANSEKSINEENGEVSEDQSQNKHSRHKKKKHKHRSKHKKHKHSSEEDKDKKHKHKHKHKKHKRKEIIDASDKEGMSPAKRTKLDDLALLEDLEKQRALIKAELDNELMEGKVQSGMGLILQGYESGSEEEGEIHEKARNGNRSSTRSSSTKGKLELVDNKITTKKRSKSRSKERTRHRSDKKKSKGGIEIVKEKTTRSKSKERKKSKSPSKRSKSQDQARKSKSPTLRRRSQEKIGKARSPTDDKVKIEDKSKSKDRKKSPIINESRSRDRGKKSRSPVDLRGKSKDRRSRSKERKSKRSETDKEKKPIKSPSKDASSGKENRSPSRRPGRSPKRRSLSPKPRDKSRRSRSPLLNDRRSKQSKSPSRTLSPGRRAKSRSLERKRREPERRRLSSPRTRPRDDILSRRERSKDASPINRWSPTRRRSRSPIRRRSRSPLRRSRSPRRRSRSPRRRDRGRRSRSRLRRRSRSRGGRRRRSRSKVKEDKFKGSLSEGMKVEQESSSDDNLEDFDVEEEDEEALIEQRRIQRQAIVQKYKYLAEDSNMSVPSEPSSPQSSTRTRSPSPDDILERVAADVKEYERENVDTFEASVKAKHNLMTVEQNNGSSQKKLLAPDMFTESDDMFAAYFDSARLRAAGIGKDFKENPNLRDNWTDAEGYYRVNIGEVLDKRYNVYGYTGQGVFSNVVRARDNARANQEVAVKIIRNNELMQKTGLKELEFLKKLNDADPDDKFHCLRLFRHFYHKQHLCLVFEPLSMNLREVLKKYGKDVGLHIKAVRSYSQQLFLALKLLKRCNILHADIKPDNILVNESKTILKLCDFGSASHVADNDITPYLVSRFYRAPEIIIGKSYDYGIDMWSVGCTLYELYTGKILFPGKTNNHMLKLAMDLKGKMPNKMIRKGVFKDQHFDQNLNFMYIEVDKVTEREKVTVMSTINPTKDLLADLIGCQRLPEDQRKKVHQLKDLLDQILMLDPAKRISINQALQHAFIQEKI
UniProt Q02779, sequence (Q02779 whole entry, looked up): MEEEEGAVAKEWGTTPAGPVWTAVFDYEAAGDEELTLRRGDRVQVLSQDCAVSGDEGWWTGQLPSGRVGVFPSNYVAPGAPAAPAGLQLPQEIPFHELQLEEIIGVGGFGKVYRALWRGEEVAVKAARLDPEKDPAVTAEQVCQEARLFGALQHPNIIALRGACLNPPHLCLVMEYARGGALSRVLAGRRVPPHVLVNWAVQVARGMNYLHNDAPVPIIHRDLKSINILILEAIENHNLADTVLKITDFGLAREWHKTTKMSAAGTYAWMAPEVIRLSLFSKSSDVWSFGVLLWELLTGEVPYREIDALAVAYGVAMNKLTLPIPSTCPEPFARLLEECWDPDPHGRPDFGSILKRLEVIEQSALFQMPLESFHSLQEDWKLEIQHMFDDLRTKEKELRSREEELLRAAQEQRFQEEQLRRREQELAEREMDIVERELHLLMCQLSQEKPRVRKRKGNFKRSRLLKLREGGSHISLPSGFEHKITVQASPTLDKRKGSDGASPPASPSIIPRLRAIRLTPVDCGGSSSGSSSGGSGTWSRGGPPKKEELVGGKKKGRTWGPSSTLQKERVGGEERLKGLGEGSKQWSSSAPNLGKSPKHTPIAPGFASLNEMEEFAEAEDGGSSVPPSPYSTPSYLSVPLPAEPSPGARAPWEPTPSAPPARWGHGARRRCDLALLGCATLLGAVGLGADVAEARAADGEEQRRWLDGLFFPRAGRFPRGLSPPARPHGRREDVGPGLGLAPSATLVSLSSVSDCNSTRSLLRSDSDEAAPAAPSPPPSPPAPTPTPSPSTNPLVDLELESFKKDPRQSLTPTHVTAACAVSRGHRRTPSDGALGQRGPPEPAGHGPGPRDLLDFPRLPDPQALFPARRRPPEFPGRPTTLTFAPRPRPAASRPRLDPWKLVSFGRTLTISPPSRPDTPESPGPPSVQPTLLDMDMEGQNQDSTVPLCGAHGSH
UniProt O95747, sequence (O95747 whole entry, looked up): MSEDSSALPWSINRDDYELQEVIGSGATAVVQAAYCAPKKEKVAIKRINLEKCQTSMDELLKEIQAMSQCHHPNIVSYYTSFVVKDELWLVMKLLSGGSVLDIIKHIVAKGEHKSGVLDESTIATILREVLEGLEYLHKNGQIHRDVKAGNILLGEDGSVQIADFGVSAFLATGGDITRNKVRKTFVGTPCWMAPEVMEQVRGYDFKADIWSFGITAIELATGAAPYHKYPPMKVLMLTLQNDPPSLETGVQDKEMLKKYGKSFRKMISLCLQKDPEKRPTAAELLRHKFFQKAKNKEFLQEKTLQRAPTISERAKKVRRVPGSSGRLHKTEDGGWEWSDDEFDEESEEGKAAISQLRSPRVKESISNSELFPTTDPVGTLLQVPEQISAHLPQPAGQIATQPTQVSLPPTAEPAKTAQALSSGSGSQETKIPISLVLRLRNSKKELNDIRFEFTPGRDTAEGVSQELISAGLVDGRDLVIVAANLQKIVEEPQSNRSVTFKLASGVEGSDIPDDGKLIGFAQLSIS

For the molecule `C#CCNC(=O)c1cc(Nc2cc(C)[nH]n2)nc(N2CCN(Cc3ccc(S(=O)(=O)F)cc3)CC2)n1`, the pIC50 on CASK, at ILK (cell material: Lysate mix), at KIT, on TBK1 (cell material: Lysate mix), on UniProt Q02779 and on UniProt Q9HCP0 (cell material: Lysate mix) was under 4.52 throughout.
On to `O=C(NCCNC(=O)c1cc(Nc2cc(C3CC3)[nH]n2)nc(N2CCN(Cc3ccc(S(=O)(=O)F)cc3)CC2)n1)OC1CC/C=C/CCC1` (centres undefined), for which the pIC50 at CASK is under 4.52; on ILK (cell material: Jurkat cells), under 4.52; at ILK (cell material: Jurkat lysate) it was under 4.52; at ILK (cell material: Lysate mix), under 4.52; at PRPF4B, under 4.52; at TBK1 (cell material: Jurkat cells) it was 5.71. The pIC50 was under 4.52 at TBK1 (cell material: Jurkat lysate); under 4.52 on TBK1 (cell material: Lysate mix); 5.3 at UniProt O95747 (cell material: Jurkat cells); under 4.52 at UniProt O95747 (cell material: Jurkat lysate); under 4.52 on UniProt O95747 (cell material: Lysate mix); under 4.52 at UniProt Q02779. Moreover, the pIC50 is under 4.52 at UniProt Q8NEB9 (cell material: Jurkat cells), under 4.52 on UniProt Q9HCP0 (cell material: Jurkat lysate), under 4.52 at UniProt Q9HCP0 (cell material: Lysate mix) and 4.88 at UniProt Q9UQB9 (cell material: Lysate mix).
As to `CCNC(=O)c1cc(Nc2cc(C3CC3)[nH]n2)nc(N2CCN(Cc3ccc(S(=O)(=O)F)cc3)CC2)n1`, the pIC50 is under 4.52 at CASK; under 4.52 on ILK (cell material: Lysate mix); under 4.52 at KIT; 5.12 at PRPF4B; 5.34 on TBK1 (cell material: Lysate mix); 5.24 at UniProt O95747 (cell material: Lysate mix). Also, the pIC50 was 5.14 on UniProt Q02779, under 4.52 at UniProt Q8NEB9 (cell material: Lysate mix) and 5.26 at UniProt Q9UQB9 (cell material: Lysate mix).
For `Cc1cc(Nc2cc(C(=O)NCCNC(=O)OC3CC/C=C/CCC3)nc(N3CCN(Cc4ccc(S(=O)(=O)F)cc4)CC3)n2)n[nH]1` (centres undefined), the pIC50 at ILK (cell material: Lysate mix), on PRPF4B, at TBK1 (cell material: Lysate mix), at UniProt O95747 (cell material: Lysate mix), at UniProt Q02779 and on UniProt Q9HCP0 (cell material: Lysate mix) was under 4.52 each time. The same molecule yielded a pIC50 on UniProt Q9UQB9 (cell material: Lysate mix) of 4.7.
Consider `CCNC(=O)c1cc(Nc2cc(C)[nH]n2)nc(N2CCN(Cc3ccc(S(=O)(=O)F)cc3)CC2)n1`, for which the pIC50 on CASK is under 4.52; on KIT it was under 4.52; at UniProt O95747 (cell material: Lysate mix), under 4.52; at UniProt Q02779 it was under 4.52; at UniProt Q9HCP0 (cell material: Lysate mix), under 4.52; on UniProt Q9UQB9 (cell material: Lysate mix), 5.64.
For the molecule `C#CCNC(=O)c1cc(Nc2cc(C3CC3)[nH]n2)nc(N2CCN(Cc3ccc(S(=O)(=O)F)cc3)CC2)n1`, the pIC50 at ILK (cell material: Jurkat cells) was 5.41; on ILK (cell material: Jurkat lysate) it was under 4.52; on KIT, under 4.52; at PRPF4B, under 4.52; on TBK1 (cell material: Jurkat cells), 5.98; on TBK1 (cell material: Jurkat lysate) it was under 4.52. The pIC50 at TBK1 (cell material: Lysate mix) was 5.28; at UniProt O95747 (cell material: Jurkat cells), 6.16; on UniProt O95747 (cell material: Jurkat lysate), 5.4; on UniProt O95747 (cell material: Lysate mix), 5.54; on UniProt Q8NEB9 (cell material: Jurkat cells), 4.87; at UniProt Q9HCP0 (cell material: Jurkat cells) it was 5.12. The negative-log IC50 (pIC50) was under 4.52 on UniProt Q9HCP0 (cell material: Jurkat lysate), 5.48 at UniProt Q9UQB9 (cell material: Jurkat lysate) and 5.81 on UniProt Q9UQB9 (cell material: Lysate mix).

For orientation: pIC50 means −log10 of the IC50, conventionally taken in molar units.
